Source: paper PMC9506420, “Biological Evaluation of 3-Azaspiro[Bicyclo[3.1.0]Hexane-2,5′-Pyrimidines] as Potential Antitumor Agents” (International Journal of Molecular Sciences, 2022)
“And” between values parts separate entries of the source, which are not always exact repeats. Identical values can stand only once. Like-named read-outs stand apart in the source and are kept apart here.

Legend:
HeLa cells [1] = experiment: Cell cycle distribution by flow cytometry (propidium iodide), HeLa; assay type: cell-based, human; settings: for SubG1 (%) / G2/M (%) / S (%) / G0/G1 (%): HeLa, 10 μg/mL, 24 h; for SubG1 (%): control 2.3 ± 0.4; for G2/M (%): control 12.2 ± 1.3; for S (%): control 12.5 ± 1.7; for G0/G1 (%): control 73.1 ± 2.6; for cytostatic effect (cell cycle), HeLa: HeLa cell line
Protocol: One of the indicators of the influence of biologically active products on the cells is the changed distribution of cells during different stages of the cell cycle. In this work, recently synthesized compounds were tested using flow cytometry for their effect on the distribution of cells in the cell cycle (G0/G1, G2/M, and S). Figure 8, Figure 9 and Figure 10 and Table 3 show the typical data after processing the results from three replicates of each experiment.
The distribution of HeLa and CT26 cells in the G0/G1-, S-, and G2/M-phases of the cell cycle was obtained by quantification of DNA content in propidium-iodide-stained cells using flow cytometry. Briefly, cells were seeded in 24-well plates at a density of 5 × 10^4 cells per well. After 24 h incubation, cells were exposed to 10 μg/mL of compounds 4c–i (the structure is provided in Scheme 1) for 24 h. The effects of compounds 4d, 4e, 4g, 4h were additionally tested at concentrations of 2 and 5 μg/mL. After incubation with drugs, the cells were detached by exposure to trypsin-EDTA for 5 min at 37 °C and then collected by pipetting. This was followed by treatment with 0.2 mg/mL saponin (Fluka, Waltham, MA, USA), 0.25 mg/mL RNase (Sigma-Aldrich, St. Louis, MO, USA), and 0.05 mg/mL propidium iodide (Invitrogen, Carlsbad, CA, USA). After washing, the samples were analyzed by standard flow cytometer (BD FACSCanto II, Becton Dickinson, San Jose, CA, USA). Then, 10,000 events were acquired for the sample. Data processing was performed using BD FACSDiva 9.0 software.

[2] = tested on: mouse colon carcinoma (CT26) cell line; experiment: MTS antiproliferative (cytotoxicity) assay, CT26; assay type: cell-based; settings: for SI (selectivity index), CT26: Vero as reference cell line; for IC50: Mus musculus
Protocol: (§1) The cytotoxicity of synthesized 3-azaspiro[bicyclo[3.1.0]hexane-2,5′-pyrimidines] 4 against human erythroleukemia (K562), cervical carcinoma (HeLa), and T lymphocyte (Jurkat), as well as mouse colon carcinoma (CT26) and African green monkey kidney epithelial (Vero) cell lines as reference, was evaluated in vitro by the standard MTS assay for 24 and 72 h.
(§2) All the cell lines (human cervical carcinoma (HeLa), erythroleukemia (K-562), and T lymphocyte (Jurkat) as well as mouse colon carcinoma (CT26) and African green monkey kidney epithelial (Vero)) were obtained from the cell repository “Vertebrate cell culture collection” (supported by the Ministry of Science and Higher Education of the Russian Federation, agreement №075-15-2021-683, Institute of Cytology, Russian Academy of Sciences, Saint Petersburg, Russia). HeLa, Jurkat, and Vero cells were cultured in DMEM (HyClone, South Logan, UT, USA) supplemented with 10% (v/v) fetal bovine serum (Hyclone, GE Healthcare Life Sciences, Logan, UT, USA), and gentamicin (Sigma-Aldrich, St. Louis, MO, USA) at 37 °C in a humidified atmosphere with 5% CO2. K-562 and CT26 cells were grown at RPMI medium (Hyclone, GE Healthcare Life Sciences, Logan, UT, USA), with the same supplements and conditions.
(§3) To evaluate the in vitro toxicity of compounds synthesized, cells were seeded into 96-well plates at a density of 5 × 10^3 cells per well. On the next day, tested compounds were added to the wells at concentrations ranging from […], followed by incubation for 1 and 3 days. Cell proliferation was determined by adding 20 μL of MTS reagent (BioVision, Milpitas, CA, USA) stock solution per well. Each plate was incubated for 2 h at 37 °C in a humidified, 5% CO2 atmosphere. The plates were then read at 495 nm using plate spectrophotometer (Multiskan GO, Thermo Fisher Scientific, Waltham, MA, USA). All samples were measured in triplicates.

[3] = tested on: human cervical carcinoma (HeLa) cell line; experiment: MTS antiproliferative (cytotoxicity) assay, HeLa; assay type: cell-based; settings: HeLa; for SI (selectivity index), HeLa: Vero as reference cell line; for IC50: Homo sapiens
Protocol: as §1, §2, §3

HeLa cells [4] = experiment: Annexin V-FITC/DAPI cell death analysis, HeLa; assay type: cell-based, human; settings: 10 μg/mL, 72 h; for Necrotic Cells, %: control 0.5 ± 0.3; for Early Apoptotic Cells, %: control 4.5 ± 0.7; for Late Apoptotic Cells, %: control 5.9 ± 0.4; for Live Cells, %: control 89.0 ± 0.7
Protocol: The results of cell death detection after the exposure of the HeLa and CT26 cell lines to spiro-fused cycloadducts 4c–i at a dose of 10 μg/mL for 72 h, using Annexin V-FITC/DAPI staining, are shown in Figure 6 and Figure 7, respectively.
Cells were seeded in 24-well plates, 5 × 10^4 cells per well. After 24 h incubation, cells were treated with compounds 4c–i for 72 h. Then, cells were washed, harvested by trypsinisation, stained with Annexin V-FITC ([…]) and DAPI (Thermo Fisher Scientific, Waltham, MA, USA), in accordance with the protocol of the manufacturer, and analyzed by flow cytometry. The proapoptotic effect of azaspiro[bicyclo[3.1.0]hexane-2,5′-pyrimidines] 4c–i was evaluated by an Annexin V-FITC/DAPI (AV/DAPI) dual-staining assay to examine the occurrence of phosphatidylserine externalization, which facilitated the detection of live cells (lower-left quadrant; AV−/DAPI−), early apoptotic cells (upper-left quadrant; AV+/DAPI−), late apoptotic cells (upper-right quadrant; AV+/DAPI+), and necrotic cells (lower-right quadrant; AV−/DAPI+).

[5] = tested on: African green monkey kidney epithelial (Vero) cell line; experiment: MTS antiproliferative (cytotoxicity) assay, Vero (reference); assay type: cell-based; settings: Chlorocebus sabaeus, Vero
Protocol: as §1, §2, §3

[6] = tested on: human erythroleukemia (K562) cell line; experiment: MTS antiproliferative (cytotoxicity) assay, K562; assay type: cell-based; settings: for IC50: Homo sapiens; for SI (selectivity index), K562: Vero as reference cell line
Protocol: as §1, §2, §3

[7] = tested on: human T lymphocyte (Jurkat) cell line; experiment: MTS antiproliferative (cytotoxicity) assay, Jurkat; assay type: cell-based; settings: for IC50: Homo sapiens, MTS; for SI (selectivity index), Jurkat: Vero as reference cell line
Protocol: The cytotoxicity of synthesized 3-azaspiro[bicyclo[3.1.0]hexane-2,5′-pyrimidines] 4 against human erythroleukemia (K562), cervical carcinoma (HeLa), and T lymphocyte (Jurkat), as well as mouse colon carcinoma (CT26) and African green monkey kidney epithelial (Vero) cell lines as reference, was evaluated in vitro by the standard MTS assay for 24 and 72 h. The results are presented in Figure 1, Figure 2, Figure 3, Figure 4 and Figure 5 (data on all, tested on K562, HeLa, and CT26 cell lines’ compounds, are given at SI, Figures S1–S3). […] Replacement of the phenyl group by either the carboxymethyl or N-isopropylcarbamoyl group has led to a significant decrease in the activity of spiro-fused cycloadducts comprising azabicyclo[3.1.0]hexane and alloxane moieties.
as §2, §3

[8] = CT26, 24 h, read-out: IC50, CT26, 24 h
[9] = CT26, 72 h, read-out: IC50, CT26, 72 h
[10] = 24 h, read-out: IC50, HeLa, 24 h
[11] = 72 h, read-out: IC50, HeLa, 72 h
[12] = 24 h, read-out: IC50, Vero, 24 h
[13] = 72 h, read-out: IC50, Vero, 72 h
[14] = K562, 24 h, read-out: IC50, K562, 24 h
[15] = K562, 72 h, read-out: IC50, K562, 72 h
[16] = 24 h, read-out: IC50, Jurkat, 24 h
[17] = 72 h, read-out: IC50, Jurkat, 72 h

| Structure (SMILES) | SubG1 (%) (HeLa cells [1]) | G2/M (%) (HeLa cells [1]) | S (%) (HeLa cells [1]) | G0/G1 (%) (HeLa cells [1]) | SI (selectivity index), CT26 [2] | IC50 [2, 8] | IC50 [2, 9] | SI (selectivity index), HeLa [3] | IC50 [3, 10] | IC50 [3, 11] | Necrotic Cells, % (HeLa cells [4]) | Early Apoptotic Cells, % (HeLa cells [4]) | Live Cells, % (HeLa cells [4]) | IC50 [5, 12] | IC50 [5, 13] | IC50 [6, 14] | IC50 [6, 15] | SI (selectivity index), K562 [6] | IC50 [7, 16] | IC50 [7, 17] | other results |
| --- | --- | --- | --- | --- | --- | --- | --- | --- | --- | --- | --- | --- | --- | --- | --- | --- | --- | --- | --- | --- | --- |
| O=C1NC(=O)C2(N[C@@H](c3ccccc3)[C@@]3(c4ccccc4)[C@H](c4ccccc4)[C@@]23c2ccccc2)C(=O)N1 [Compound 4i] | 20.1 ± 1.3 % | 9.9 ± 0.8 % | 18.1 ± 2.4 % | 51.8 ± 4.0 % | 2.0 | 16 ± 2 µM | 12 ± 2 µM | 2.0 | 10 ± 2 µM | 12 ± 6 µM | 2.1 ± 0.9 % | 12.6 ± 0.8 % | 67.9% and 67.9 ± 2.4 % | 97 ± 12 µM | 23 ± 4 µM | 26 ± 4 µM | 8 ± 4 µM | 2.9 | 19 ± 2 µM | 14 ± 4 µM | Late Apoptotic Cells, % (HeLa cells [4]): 17.3 ± 1.4 %; SI (selectivity index), Jurkat [7]: 1.7 |
| CCCC[C@@H]1NC2(C(=O)NC(=O)NC2=O)[C@]2(c3ccccc3)[C@@H](c3ccccc3)[C@]12c1ccccc1 [Compound 4e] | 34.4 ± 5.8 % | 5.7 ± 0.9 % | 16.7 ± 1.2 % | 43.1 ± 1.4 % | 1.7 | 10 ± 2 µM | 6 ± 2 µM | 0.8 | 13 ± 2 µM | 13 ± 4 µM | 5.6 ± 2.6 % | 18.1 ± 3.1 % | 15.0% and 15.0 ± 2.7 % | 23 ± 2 µM | 10 ± 2 µM | 17 ± 2 µM | 4 ± 2 µM | 2.5 | 12 ± 2 µM | 9 ± 2 µM | cytostatic effect (cell cycle), HeLa (HeLa cells [1]): strongest cytostatic effect; Late Apoptotic Cells, % (HeLa cells [4]): 61.3 ± 3.8 %; SI (selectivity index), Jurkat [7]: 1.2 |
| CCCCCC[C@@H]1NC2(C(=O)NC(=O)NC2=O)[C@]2(c3ccccc3)[C@@H](c3ccccc3)[C@]12c1ccccc1 [Compound 4g] | 39.5 ± 5.0 % | 5.3 ± 0.7 % | 13.3 ± 0.8% | 41.8 ± 3.0 % | 1.2 | 22 ± 2 µM | 12 ± 2 µM | 1.1 | 15 ± 2 µM | 13 ± 2 µM | 6.3 ± 2.8 % | 38.5 ± 1.9 % | 17.1% and 17.1 ± 3.5 % | 33 ± 6 µM | 14 ± 2 µM | 19 ± 2 µM | 10 ± 2 µM | 1.4 | 11 ± 2 µM | 8 ± 2 µM | cytostatic effect (cell cycle), HeLa (HeLa cells [1]): strongest cytostatic effect; Late Apoptotic Cells, % (HeLa cells [4]): 38.0 ± 6.9 %; SI (selectivity index), Jurkat [7]: 1.8 |
| CC[C@@H]1NC2(C(=O)NC(=O)NC2=O)[C@]2(c3ccccc3)[C@@H](c3ccccc3)[C@]12c1ccccc1 [Compound 4c] | 8.1 ± 1.9 % | 11.0 ± 1.5% | 17.6 ± 1.2 % | 63.3 ± 2.2 % | 0.8 | 27 ± 2 µM | 20 ± 2 µM | 1.3 | 21 ± 2 µM | 13 ± 2 µM | 2.2 ± 0.5 % | 5.6 ± 1.3% | 81.0 ± 4.4 % | 47 ± 11 µM | 16 ± 2 µM | 12 ± 2 µM | 5 ± 2 µM | 3.2 | 149 ± 33 µM | 15 ± 2 µM | rate of cell death in HeLa vs control (HeLa cells [4]): not different from the control; SI (selectivity index), Jurkat [7]: 1.1 |
| CSCC[C@@H]1NC2(C(=O)NC(=O)NC2=O)[C@]2(c3ccccc3)[C@@H](c3ccccc3)[C@]12c1ccccc1 [Compound 4h] | 9.9 ± 7.8 % | 12.6 ± 0.8% | 13.9 ± 1.8% | 63.6 ± 6.8 % | 1.4 | 22 ± 2 µM | 16 ± 2 µM | 1.0 | 28 ± 2 µM | 24 ± 6 µM | 1.9 ± 0.2 % | 9.8 ± 1.0 % | 72.2% and 72.2 ± 0.4 % | 31 ± 4 µM | 22 ± 4 µM | 20 ± 4 µM | 10 ± 2 µM | 2.2 | 18 ± 4 µM | 13 ± 4 µM | Late Apoptotic Cells, % (HeLa cells [4]): 15.3 ± 0.5 %; SI (selectivity index), Jurkat [7]: 1.7 |
